Key:
[1] = molecular target: T1, Xanthine dehydrogenase/oxidase (Homo sapiens, UniProt P47989); experiment: Inhibition of XO (unknown origin) using xanthine as substrate assessed as reduction in uric acid formation by double beam spectrophotometric analysis
[2] = molecular target: T1, Xanthine dehydrogenase/oxidase; experiment: Inhibition of XO (unknown origin) by microtitre plate analysis
[3] = molecular target: Xanthine dehydrogenase/oxidase (Bos taurus, UniProt P80457); experiment: Inhibition of Bovine milk xanthine oxidase using xanthine as substrate assessed as decrease in uric acid level preincubated for 5 mins followed by substrate addition by spectrophotometric analysis
[4] = molecular target: T1, Xanthine dehydrogenase/oxidase; experiment: Inhibition of XO (unknown origin) using xanthine as substrate preincubated for 3 hrs followed by substrate addition by UV-Vis spectrophotometric analysis
[5] = molecular target: T1, Xanthine dehydrogenase/oxidase; experiment: Inhibition of XO (unknown origin)
[6] = molecular target: T1, Xanthine dehydrogenase/oxidase; experiment: Inhibition of XO (unknown origin) using xanthine as substrate assessed as reduction in uric acid formation by FluoSTAR OPTIMA plate reader analysis

T1 sequence (P47989 whole entry): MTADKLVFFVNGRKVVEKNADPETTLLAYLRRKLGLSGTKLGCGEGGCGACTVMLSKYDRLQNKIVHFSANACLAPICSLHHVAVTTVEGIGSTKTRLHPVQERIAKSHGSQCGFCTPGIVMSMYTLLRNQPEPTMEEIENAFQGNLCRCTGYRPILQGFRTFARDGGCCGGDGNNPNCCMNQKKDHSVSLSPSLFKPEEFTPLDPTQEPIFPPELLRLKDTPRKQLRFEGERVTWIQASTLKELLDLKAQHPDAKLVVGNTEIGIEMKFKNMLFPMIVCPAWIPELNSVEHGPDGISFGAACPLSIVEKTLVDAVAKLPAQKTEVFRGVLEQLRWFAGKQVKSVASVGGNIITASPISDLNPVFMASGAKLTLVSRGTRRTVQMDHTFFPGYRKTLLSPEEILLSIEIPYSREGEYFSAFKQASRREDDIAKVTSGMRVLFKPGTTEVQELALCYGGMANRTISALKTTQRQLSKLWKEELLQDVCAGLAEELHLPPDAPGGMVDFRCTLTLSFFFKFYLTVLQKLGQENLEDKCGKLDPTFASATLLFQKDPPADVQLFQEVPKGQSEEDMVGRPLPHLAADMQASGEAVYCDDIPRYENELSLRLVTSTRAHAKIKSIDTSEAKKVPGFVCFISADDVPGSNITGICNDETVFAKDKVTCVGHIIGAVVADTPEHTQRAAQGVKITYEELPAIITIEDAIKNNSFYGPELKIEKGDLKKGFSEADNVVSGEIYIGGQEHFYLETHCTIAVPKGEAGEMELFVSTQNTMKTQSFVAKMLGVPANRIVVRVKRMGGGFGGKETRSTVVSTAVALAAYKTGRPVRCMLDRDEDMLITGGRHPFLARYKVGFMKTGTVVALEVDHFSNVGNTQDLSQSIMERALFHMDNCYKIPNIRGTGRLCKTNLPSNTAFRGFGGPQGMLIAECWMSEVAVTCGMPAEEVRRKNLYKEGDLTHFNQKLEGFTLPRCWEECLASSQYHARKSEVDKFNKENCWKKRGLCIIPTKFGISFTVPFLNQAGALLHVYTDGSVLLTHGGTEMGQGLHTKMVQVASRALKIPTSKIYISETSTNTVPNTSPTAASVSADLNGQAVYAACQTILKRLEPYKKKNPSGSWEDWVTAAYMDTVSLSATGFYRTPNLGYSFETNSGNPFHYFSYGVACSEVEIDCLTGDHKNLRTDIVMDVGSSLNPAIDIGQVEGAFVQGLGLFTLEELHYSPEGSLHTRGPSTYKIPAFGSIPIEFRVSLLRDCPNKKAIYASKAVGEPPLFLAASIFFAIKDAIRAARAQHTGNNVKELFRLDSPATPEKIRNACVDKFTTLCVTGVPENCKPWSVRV
Xanthine dehydrogenase/oxidase (Bos taurus, UniProt P80457), sequence (P80457 whole entry): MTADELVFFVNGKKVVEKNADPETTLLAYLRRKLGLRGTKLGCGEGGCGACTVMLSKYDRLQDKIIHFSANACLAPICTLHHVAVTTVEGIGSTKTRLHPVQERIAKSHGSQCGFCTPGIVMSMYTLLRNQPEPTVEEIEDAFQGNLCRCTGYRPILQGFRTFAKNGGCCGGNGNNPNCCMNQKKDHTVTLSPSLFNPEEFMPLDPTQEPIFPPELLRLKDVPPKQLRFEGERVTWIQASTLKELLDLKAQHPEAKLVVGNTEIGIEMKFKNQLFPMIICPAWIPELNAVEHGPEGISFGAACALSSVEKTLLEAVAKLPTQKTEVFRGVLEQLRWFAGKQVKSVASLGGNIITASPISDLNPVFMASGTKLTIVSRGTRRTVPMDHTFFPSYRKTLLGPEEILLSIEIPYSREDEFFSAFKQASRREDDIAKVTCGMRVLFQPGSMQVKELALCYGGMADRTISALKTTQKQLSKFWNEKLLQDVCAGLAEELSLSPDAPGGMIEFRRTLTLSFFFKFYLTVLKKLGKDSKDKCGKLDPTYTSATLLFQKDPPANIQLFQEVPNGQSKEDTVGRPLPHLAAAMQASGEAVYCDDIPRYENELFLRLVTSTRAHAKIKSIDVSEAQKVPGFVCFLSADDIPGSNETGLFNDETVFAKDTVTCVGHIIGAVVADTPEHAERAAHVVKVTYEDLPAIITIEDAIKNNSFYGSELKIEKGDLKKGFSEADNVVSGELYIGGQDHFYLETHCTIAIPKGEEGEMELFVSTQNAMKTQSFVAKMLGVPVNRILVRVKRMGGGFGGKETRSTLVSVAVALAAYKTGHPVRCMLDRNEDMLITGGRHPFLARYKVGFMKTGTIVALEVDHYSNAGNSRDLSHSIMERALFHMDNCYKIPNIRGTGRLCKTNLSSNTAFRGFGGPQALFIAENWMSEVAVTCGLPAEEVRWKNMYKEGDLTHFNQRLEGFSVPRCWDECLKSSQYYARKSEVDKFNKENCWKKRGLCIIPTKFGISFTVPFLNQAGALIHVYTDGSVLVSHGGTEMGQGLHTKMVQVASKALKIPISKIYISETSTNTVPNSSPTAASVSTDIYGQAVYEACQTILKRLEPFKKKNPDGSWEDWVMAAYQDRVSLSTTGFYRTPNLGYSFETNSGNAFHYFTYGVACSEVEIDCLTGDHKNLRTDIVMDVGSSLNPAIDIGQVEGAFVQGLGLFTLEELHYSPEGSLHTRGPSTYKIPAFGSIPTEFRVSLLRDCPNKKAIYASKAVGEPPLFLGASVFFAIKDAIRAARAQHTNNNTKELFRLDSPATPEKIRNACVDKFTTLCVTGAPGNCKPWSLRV

Structure (SMILES): O=c1oc2c(O)ccc(-c3oc4cc(O)cc(O)c4c(=O)c3O)c2s1
- IC50 [1]: 50 nM

Structure (SMILES): COc1cc(O)cc2c(=O)oc(O)c(C)c12
- IC50 [2]: 2970 nM

Structure (SMILES): O=c1oc2ccccc2c2c1C(c1cccs1)C=C(c1ccccc1)O2 (configuration not stated)
- IC50 [3]: 2210 nM

Structure (SMILES): O=c1cc(-c2ccccc2)oc2cc(O)cc(O)c12 [CHRYSIN]
- IC50 [4]: 1260 nM

Structure (SMILES): O=c1ccc2cc(O)c(O)cc2o1 [ESCULETIN]
- IC50 [2]: 42000 nM

Structure (SMILES): O=c1c(-c2ccc(O)cc2)coc2cc(O)cc(O)c12 [GENISTEIN]
- IC50 [5]: 3530 nM

Structure (SMILES): COc1ccc([C@@H]2CC(=O)c3c(O)cc(O)cc3O2)cc1O [HESPERETIN]
- IC50 [6]: 840 nM
